Assay results published in PMC7252619 (PLoS ONE, 2020).
Like-named read-outs stand apart in the source and are kept apart here.

What was measured:
Assay in all cases: Kinase activity test (ReactionBiology), % enzyme activity relative to DMSO
Format in all cases: biochemical
[1] = biological target: T1, DAPK1 (Homo sapiens, UniProt P53355)
T1 construct: purchased ReactionBiology

[2] = biological target: VEGFR2 (Homo sapiens, UniProt P35968); set-up: purchased ReactionBiology; conditions: VEGFR2;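 also: VEGFR2 was one member of a ten-kinase screening panel testing marketed FDA-approved drugs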
[3] = biological target: T2, EPHB4 (Homo sapiens, UniProt P54760);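 also: EPHB4 was one of ten selected kinases in the screening panel, with enzyme activity expressed as a percentage of DMSO controls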
T2 construct: purchased ReactionBiology
T2 sequence (P54760 16-987): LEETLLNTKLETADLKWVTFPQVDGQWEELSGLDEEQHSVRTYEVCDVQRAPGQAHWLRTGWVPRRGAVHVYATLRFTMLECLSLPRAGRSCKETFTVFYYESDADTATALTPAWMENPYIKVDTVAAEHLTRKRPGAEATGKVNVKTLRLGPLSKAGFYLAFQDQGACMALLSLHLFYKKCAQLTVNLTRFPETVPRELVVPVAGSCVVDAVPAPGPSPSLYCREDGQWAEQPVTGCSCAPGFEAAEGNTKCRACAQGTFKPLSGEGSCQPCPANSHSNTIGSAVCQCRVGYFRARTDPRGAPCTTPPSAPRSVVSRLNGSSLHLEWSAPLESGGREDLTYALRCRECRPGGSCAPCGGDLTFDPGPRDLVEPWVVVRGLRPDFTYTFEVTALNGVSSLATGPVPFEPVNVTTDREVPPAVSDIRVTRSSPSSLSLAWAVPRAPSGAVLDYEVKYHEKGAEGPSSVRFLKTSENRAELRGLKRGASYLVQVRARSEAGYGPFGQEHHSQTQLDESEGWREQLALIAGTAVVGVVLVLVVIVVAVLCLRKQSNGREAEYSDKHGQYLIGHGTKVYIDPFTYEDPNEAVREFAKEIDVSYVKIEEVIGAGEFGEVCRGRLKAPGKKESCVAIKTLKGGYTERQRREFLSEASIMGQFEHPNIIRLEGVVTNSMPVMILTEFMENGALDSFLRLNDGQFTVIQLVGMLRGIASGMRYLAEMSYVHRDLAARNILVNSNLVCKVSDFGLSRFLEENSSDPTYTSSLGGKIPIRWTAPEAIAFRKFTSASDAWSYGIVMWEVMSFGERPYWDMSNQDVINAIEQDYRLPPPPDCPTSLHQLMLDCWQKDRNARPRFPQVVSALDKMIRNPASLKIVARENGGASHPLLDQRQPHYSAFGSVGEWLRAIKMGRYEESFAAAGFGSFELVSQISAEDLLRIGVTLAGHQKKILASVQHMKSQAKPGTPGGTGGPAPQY

[4] = biological target: T3, CK1d (Homo sapiens, UniProt P48730)
T3 construct: purchased ReactionBiology

[5] = DAPK1, 1 uM, Average, read-out: % Enzyme Activity (relative to DMSO controls), Average
[6] = DAPK1, 1 uM, replicate Data 1, read-out: % Enzyme Activity (relative to DMSO controls), Data 1
[7] = DAPK1, 1 uM, replicate Data 2, read-out: % Enzyme Activity (relative to DMSO controls), Data 2
[8] = DAPK1, 10 uM, Average, read-out: % Enzyme Activity (relative to DMSO controls), Average
[9] = DAPK1, 10 uM, replicate Data 1, read-out: % Enzyme Activity (relative to DMSO controls), Data 1
[10] = DAPK1, 10 uM, replicate Data 2, read-out: % Enzyme Activity (relative to DMSO controls), Data 2
[11] = 1 uM, Average, read-out: % Enzyme Activity (relative to DMSO controls), Average
[12] = 1 uM, replicate Data 1, read-out: % Enzyme Activity (relative to DMSO controls), Data 1
[13] = 1 uM, replicate Data 2, read-out: % Enzyme Activity (relative to DMSO controls), Data 2
[14] = 10 uM, Average, read-out: % Enzyme Activity (relative to DMSO controls), Average
[15] = 10 uM, replicate Data 1, read-out: % Enzyme Activity (relative to DMSO controls), Data 1
[16] = 10 uM, replicate Data 2, read-out: % Enzyme Activity (relative to DMSO controls), Data 2
[17] = EPHB4, 1 uM, Average, read-out: % Enzyme Activity (relative to DMSO controls), Average
[18] = EPHB4, 1 uM, replicate Data 1, read-out: % Enzyme Activity (relative to DMSO controls), Data 1
[19] = EPHB4, 1 uM, replicate Data 2, read-out: % Enzyme Activity (relative to DMSO controls), Data 2
[20] = EPHB4, 10 uM, Average, read-out: % Enzyme Activity (relative to DMSO controls), Average
[21] = EPHB4, 10 uM, replicate Data 1, read-out: % Enzyme Activity (relative to DMSO controls), Data 1
[22] = EPHB4, 10 uM, replicate Data 2, read-out: % Enzyme Activity (relative to DMSO controls), Data 2
[23] = read-out: % Enzyme Activity (relative to DMSO controls), Average
[24] = read-out: % Enzyme Activity (relative to DMSO controls), Data 1
[25] = read-out: % Enzyme Activity (relative to DMSO controls), Data 2
[26] = CK1d, 1 uM, Average, read-out: % Enzyme Activity (relative to DMSO controls), Average
[27] = CK1d, 1 uM, replicate Data 1, read-out: % Enzyme Activity (relative to DMSO controls), Data 1
[28] = CK1d, 1 uM, replicate Data 2, read-out: % Enzyme Activity (relative to DMSO controls), Data 2
[29] = CK1d, 10 uM, Average, read-out: % Enzyme Activity (relative to DMSO controls), Average
[30] = CK1d, 10 uM, replicate Data 1, read-out: % Enzyme Activity (relative to DMSO controls), Data 1
[31] = CK1d, 10 uM, replicate Data 2, read-out: % Enzyme Activity (relative to DMSO controls), Data 2

Sequence of VEGFR2 (P35968 20-1356): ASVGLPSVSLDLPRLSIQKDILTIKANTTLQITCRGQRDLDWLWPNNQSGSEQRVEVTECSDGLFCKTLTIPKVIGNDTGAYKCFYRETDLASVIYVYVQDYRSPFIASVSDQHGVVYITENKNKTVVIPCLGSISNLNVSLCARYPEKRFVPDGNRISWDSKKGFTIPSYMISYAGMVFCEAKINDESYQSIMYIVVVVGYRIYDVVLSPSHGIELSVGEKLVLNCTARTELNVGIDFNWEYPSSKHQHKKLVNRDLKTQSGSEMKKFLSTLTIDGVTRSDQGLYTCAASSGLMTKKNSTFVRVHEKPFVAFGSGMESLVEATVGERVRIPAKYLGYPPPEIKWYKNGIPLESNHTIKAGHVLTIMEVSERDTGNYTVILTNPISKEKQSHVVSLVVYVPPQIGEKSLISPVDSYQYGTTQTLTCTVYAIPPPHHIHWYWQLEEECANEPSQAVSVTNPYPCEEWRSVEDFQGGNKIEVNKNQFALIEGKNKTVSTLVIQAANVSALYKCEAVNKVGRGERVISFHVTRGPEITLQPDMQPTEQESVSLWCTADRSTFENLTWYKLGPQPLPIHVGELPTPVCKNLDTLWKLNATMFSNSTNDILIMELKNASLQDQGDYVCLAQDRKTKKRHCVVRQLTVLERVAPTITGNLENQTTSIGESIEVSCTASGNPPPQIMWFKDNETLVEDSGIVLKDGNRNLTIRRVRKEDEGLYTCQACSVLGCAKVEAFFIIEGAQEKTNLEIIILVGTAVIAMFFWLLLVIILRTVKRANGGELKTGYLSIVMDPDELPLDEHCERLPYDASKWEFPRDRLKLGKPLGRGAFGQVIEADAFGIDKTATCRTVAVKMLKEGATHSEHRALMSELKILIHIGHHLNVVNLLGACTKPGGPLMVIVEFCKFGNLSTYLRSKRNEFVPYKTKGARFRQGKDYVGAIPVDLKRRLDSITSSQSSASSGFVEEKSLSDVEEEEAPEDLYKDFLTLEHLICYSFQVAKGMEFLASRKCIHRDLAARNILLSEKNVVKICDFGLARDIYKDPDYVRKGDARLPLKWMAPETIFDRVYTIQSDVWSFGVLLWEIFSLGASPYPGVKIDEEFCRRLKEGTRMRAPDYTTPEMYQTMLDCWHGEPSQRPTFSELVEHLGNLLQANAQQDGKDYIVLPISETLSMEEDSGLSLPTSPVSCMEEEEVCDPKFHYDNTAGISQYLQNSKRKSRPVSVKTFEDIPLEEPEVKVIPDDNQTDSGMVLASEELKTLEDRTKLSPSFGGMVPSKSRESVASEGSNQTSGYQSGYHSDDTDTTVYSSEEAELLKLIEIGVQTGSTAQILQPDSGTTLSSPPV
T1 sequence (P53355 whole entry): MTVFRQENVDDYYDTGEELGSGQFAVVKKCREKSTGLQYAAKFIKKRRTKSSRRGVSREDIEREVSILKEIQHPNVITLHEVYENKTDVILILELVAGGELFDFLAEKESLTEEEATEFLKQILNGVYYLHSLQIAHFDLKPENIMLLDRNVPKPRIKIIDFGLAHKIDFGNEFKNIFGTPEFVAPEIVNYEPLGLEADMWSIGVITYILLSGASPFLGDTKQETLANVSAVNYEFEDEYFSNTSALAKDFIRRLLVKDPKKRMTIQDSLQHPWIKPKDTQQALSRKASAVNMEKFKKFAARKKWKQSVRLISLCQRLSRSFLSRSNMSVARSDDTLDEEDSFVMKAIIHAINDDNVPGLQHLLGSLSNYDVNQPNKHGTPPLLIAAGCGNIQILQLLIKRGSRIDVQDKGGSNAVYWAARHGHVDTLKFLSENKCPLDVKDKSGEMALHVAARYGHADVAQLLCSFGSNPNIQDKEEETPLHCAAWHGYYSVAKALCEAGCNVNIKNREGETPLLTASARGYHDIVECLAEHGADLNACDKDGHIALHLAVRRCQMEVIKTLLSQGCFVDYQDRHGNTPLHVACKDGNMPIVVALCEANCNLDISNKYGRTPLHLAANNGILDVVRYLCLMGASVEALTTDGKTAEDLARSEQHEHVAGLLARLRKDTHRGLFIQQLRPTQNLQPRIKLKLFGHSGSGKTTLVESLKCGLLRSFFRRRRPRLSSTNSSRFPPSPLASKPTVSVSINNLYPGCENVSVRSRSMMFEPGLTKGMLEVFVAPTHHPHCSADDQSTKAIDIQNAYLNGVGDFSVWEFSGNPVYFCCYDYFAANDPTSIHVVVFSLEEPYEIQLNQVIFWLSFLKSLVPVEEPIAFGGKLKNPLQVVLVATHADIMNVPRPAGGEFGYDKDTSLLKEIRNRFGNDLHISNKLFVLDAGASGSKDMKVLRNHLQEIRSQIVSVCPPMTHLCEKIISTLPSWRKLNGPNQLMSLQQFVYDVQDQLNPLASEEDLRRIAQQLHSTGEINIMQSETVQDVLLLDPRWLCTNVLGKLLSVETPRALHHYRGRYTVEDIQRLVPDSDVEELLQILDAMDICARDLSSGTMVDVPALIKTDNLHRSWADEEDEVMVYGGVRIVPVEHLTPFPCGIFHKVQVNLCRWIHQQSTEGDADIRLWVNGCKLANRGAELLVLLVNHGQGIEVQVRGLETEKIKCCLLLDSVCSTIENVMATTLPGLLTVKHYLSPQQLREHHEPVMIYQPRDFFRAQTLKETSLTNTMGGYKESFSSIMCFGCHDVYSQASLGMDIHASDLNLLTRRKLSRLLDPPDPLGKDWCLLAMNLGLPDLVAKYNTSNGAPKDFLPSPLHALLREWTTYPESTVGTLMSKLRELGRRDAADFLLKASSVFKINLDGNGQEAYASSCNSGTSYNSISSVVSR
T3 sequence (P48730 whole entry): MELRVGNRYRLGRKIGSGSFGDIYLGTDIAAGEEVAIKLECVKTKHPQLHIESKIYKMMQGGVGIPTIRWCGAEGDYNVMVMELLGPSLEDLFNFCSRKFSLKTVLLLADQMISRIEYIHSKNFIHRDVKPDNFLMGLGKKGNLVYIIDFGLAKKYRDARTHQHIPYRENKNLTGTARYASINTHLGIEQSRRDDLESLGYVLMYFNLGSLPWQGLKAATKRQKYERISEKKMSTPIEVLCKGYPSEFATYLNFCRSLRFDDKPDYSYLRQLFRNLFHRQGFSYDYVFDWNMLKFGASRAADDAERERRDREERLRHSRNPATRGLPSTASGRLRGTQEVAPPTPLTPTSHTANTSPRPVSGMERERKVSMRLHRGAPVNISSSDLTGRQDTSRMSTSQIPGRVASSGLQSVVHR

Compound	remaining activity at 1 µM [1, 5] [%]	remaining activity at 1 µM [1, 6] [%]	remaining activity at 1 µM [1, 7] [%]	remaining activity at 10 µM [1, 8] [%]	remaining activity at 10 µM [1, 9] [%]	remaining activity at 10 µM [1, 10] [%]	remaining activity at 1 µM [2, 11] [%]	remaining activity at 1 µM [2, 12] [%]	remaining activity at 1 µM [2, 13] [%]	remaining activity at 10 µM [2, 14] [%]	remaining activity at 10 µM [2, 15] [%]	remaining activity at 10 µM [2, 16] [%]	remaining activity at 1 µM [3, 17] [%]	remaining activity at 1 µM [3, 18] [%]	remaining activity at 1 µM [3, 19] [%]	remaining activity at 10 µM [3, 20] [%]	remaining activity at 10 µM [3, 21] [%]	remaining activity at 10 µM [3, 22] [%]	% Enzyme Activity (relative to DMSO controls), Data 2 ([1]; DAPK1, 1 uM, replicate Data 2) [%]	% Enzyme Activity (relative to DMSO controls), Data 2 ([1]; DAPK1, 10 uM, replicate Data 2) [%]	also measured
CC(C)c1nc(CN(C)C(=O)N[C@H](C(=O)N[C@@H](Cc2ccccc2)C[C@H](O)[C@H](Cc2ccccc2)NC(=O)OCc2cncs2)C(C)C)cs1 [Ritonavir, reference compound]	92.6	94.8	90.4	38.5	39.2	37.7	111	111	112	109	113	106	99.2	99.5	98.9	95.1	97.2	93.1			remaining activity at 1 µM ([1]; DAPK1, compound 1μM, relative to DMSO controls, read-out: % Enzyme activity at 1μM): 92.6%; remaining activity at 10 µM ([1]; DAPK1, compound 10μM, relative to DMSO controls, read-out: % Enzyme activity at 10μM): 38.5%
COc1cc2c(c(OC)c1OC)-c1ccc(OC)c(=O)cc1[C@@H](NC(C)=O)CC2 [Colchicine]																			111.85	96.44	% Enzyme Activity (relative to DMSO controls), Data 2 ([4]; CK1d, 10 uM, replicate Data 2): 111.97%; % Enzyme Activity (relative to DMSO controls), Data 2 ([2]; 1 uM, replicate Data 2): 110.08%; % Enzyme Activity (relative to DMSO controls), Data 2 ([2]; 10 uM, replicate Data 2): 105.23%; % Enzyme Activity (relative to DMSO controls), Data 2 ([3]; EPHB4, 1 uM, replicate Data 2): 106.52%; % Enzyme Activity (relative to DMSO controls), Data 2 ([3]; EPHB4, 10 uM, replicate Data 2): 99.11%
CS(=O)(=O)c1ccc(C2=C(c3ccccc3)C(=O)OC2)cc1 [Rofecoxib]																			104.16	90.82	% Enzyme Activity (relative to DMSO controls), Average ([1]; DAPK1, 1 uM, Average): 107.94%; % Enzyme Activity (relative to DMSO controls), Data 1 ([1]; DAPK1, 1 uM, replicate Data 1): 111.72%; % Enzyme Activity (relative to DMSO controls), Average ([1]; DAPK1, 10 uM, Average): 91.65%; % Enzyme Activity (relative to DMSO controls), Data 1 ([1]; DAPK1, 10 uM, replicate Data 1): 92.47%; % Enzyme Activity (relative to DMSO controls), Average ([3]; EPHB4, 1 uM, Average): 93.84%; % Enzyme Activity (relative to DMSO controls), Data 1 ([3]; EPHB4, 1 uM, replicate Data 1): 92.91%; % Enzyme Activity (relative to DMSO controls), Data 2 ([3]; EPHB4, 1 uM, replicate Data 2): 94.77%; % Enzyme Activity (relative to DMSO controls), Average ([3]; EPHB4, 10 uM, Average): 82.31%; % Enzyme Activity (relative to DMSO controls), Data 1 ([3]; EPHB4, 10 uM, replicate Data 1): 77.99%; % Enzyme Activity (relative to DMSO controls), Data 2 ([3]; EPHB4, 10 uM, replicate Data 2): 86.63%
CC(C)c1cccc(C(C)C)c1O [Propofol, reference compound]																					remaining activity at 1 µM [4, 23]: 126%; remaining activity at 10 µM [4, 23]: 112%; remaining activity at 1 µM [4, 24]: 145%; remaining activity at 10 µM [4, 24]: 116%; remaining activity at 1 µM [4, 25]: 108%; remaining activity at 10 µM [4, 25]: 108%; remaining activity at 1 µM [1, 23]: 107%; remaining activity at 10 µM [1, 23]: 86.5%; remaining activity at 1 µM [1, 24]: 113%; remaining activity at 10 µM [1, 24]: 86.4%; remaining activity at 1 µM [1, 25]: 102%; remaining activity at 10 µM [1, 25]: 86.5%; remaining activity at 1 µM [3, 23]: 67%; remaining activity at 10 µM [3, 23]: 68.4%; remaining activity at 1 µM [3, 24]: 76%; remaining activity at 10 µM [3, 24]: 68.4%; remaining activity at 1 µM [3, 25]: 57.9%; remaining activity at 10 µM [3, 25]: 68.5%; remaining activity at 1 µM ([3]; read-out: % Enzyme activity at 1μM): 67%; remaining activity at 10 µM ([3]; read-out: % Enzyme activity at 10μM): 68.4%
NCCCCCC(=O)O [Aminocaproic acid]	114	116	112	110	109	111							103	103	104	93.5	92.2	94.7			remaining activity at 1 µM [4, 26]: 118%; remaining activity at 1 µM [4, 27]: 116%; remaining activity at 1 µM [4, 28]: 120%; remaining activity at 10 µM [4, 29]: 125%; remaining activity at 10 µM [4, 30]: 122%; remaining activity at 10 µM [4, 31]: 127%
CC(=O)O[C@H]1C[C@@]2(C)[C@@H](C[C@@H](O)[C@H]3[C@@]4(C)CC[C@@H](O)[C@@H](C)[C@@H]4CC[C@@]32C)/C1=C(\CCC=C(C)C)C(=O)O [Fusidic acid]	96.4	102	90.5	93.7	93	94.5	109	110	107	101	96	105	101	101	101	92.3	95.3	89.3			remaining activity at 1 µM [4, 26]: 100%; remaining activity at 1 µM [4, 27]: 95.3%; remaining activity at 1 µM [4, 28]: 105%; remaining activity at 10 µM [4, 29]: 111%; remaining activity at 10 µM [4, 30]: 113%; remaining activity at 10 µM [4, 31]: 108%
